Source: US11377423B2, “Inhibitors of histone deacetylase” (The Broad Institute, Inc., priority 2012, dated 2022)

Assays:
[1] = system: INS-1E cells; experiment: Insulin assay (glucose-stimulated insulin secretion and insulin content, ELISA); format: cell-based, rat; conditions: 10 μM, palmitate and 25 mM glucose, 24 h
Method: INS-1E cells (20,000 cells/well) were seeded in 96-well plates in 100 uL complete medium. After overnight incubation media was removed and cells were exposed to 100 uL medium/well with the indicated concentrations of palmitate, glucose, HDAC inhibitors and/or vehicle. […] Cells were subsequently incubated with KRBH buffer containing 2 mM or 16 mM glucose for 1 hour. Supernatants were collected for measurement of insulin. For measuring insulin content, cells were washed in PBS and lysed using Passive Lysis Buffer. Insulin was measured with a rat insulin ELISA kit (Alpco). Total insulin content was normalized to total protein (Bradford assay). Each condition was assayed in biological duplicates. Specifically, HDAC3 inhibition is shown to preserve the glucose-induced insulin secretory function. […] FIGS. 13A to 13B are a series of bar graphs. […] Glucose-stimulated insulin secretion and total insulin content were assessed by ELISA. Data are presented as fold to CTRL+SEM, n=3-5, ns=not significant, *p<0.05, **p<0.01, ***p<0.001 vs. CTRL, #p<0.05, ##p<0.01, ###p<0.001 vs. respective treatment. ANOVA with Tukey- or Dunnet-corrected test, or Student's t-test (insulin content).

[2] = target: HDAC4 (Homo sapiens (Human), UniProt P56524); experiment: Caliper HDAC enzymatic endpoint assay, HDAC4; format: biochemical; conditions: Table 2C; read-out: HDAC4 IC50 after 0 hr preincubation
Chain of HDAC4 (P56524 whole entry): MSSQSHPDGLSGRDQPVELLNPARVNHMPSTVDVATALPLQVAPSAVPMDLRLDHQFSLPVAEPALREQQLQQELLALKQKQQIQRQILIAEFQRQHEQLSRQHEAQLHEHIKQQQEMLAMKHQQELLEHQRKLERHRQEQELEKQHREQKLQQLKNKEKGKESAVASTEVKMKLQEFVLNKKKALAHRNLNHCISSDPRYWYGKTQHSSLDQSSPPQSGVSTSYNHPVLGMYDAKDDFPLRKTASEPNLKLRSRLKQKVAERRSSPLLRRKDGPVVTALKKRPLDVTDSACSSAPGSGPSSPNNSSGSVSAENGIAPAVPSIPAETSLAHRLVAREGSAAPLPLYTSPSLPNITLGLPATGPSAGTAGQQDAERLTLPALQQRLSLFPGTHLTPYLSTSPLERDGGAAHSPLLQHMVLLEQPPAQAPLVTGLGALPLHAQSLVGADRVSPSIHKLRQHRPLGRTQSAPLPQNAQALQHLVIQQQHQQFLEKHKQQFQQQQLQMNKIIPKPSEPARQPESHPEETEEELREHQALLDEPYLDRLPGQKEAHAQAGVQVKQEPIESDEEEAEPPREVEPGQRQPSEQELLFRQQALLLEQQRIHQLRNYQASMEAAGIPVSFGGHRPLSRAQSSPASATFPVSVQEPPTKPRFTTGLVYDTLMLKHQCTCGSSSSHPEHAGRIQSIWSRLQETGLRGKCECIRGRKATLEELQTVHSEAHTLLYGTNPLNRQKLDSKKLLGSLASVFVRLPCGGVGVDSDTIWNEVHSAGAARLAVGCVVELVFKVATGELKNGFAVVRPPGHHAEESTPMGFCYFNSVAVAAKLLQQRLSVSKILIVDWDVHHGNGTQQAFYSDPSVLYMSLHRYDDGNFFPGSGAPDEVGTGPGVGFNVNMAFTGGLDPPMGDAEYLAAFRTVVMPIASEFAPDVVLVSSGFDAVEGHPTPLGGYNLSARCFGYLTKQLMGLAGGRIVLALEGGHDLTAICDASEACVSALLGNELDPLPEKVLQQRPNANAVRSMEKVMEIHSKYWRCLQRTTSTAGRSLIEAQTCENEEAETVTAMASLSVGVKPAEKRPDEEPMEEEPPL

[3] = system: FGF21; experiment: FGF21 mRNA expression in HepG2 cells; format: cell-based, human
Method: Compounds of the invention were evaluated for their ability to upregulate FgF21 mRNA expression in HepG2 cells. FgF21 (Fibroblast growth factor 21) is a potent insulin sensitizer and stimulatory signal for fat oxidation. (Li, H. et al. Diabetes, 61, 797, 2012; […]., The American Journal of Clinical Nutrition, 91, […], 2010). The assay protocol was as follows. HepG2 cells were cultured in DMEM and 10% FBS. […] We treated cells with the indicated compounds for two hours, and lysed and extracted mRNA using the Rneasy kit (Qiagen). […] Quantitative PCR was performed using Taqman probes specific for human FGF21 and human actin.

[4] = target: HDAC9 (Homo sapiens (Human), UniProt Q9UKV0); experiment: Caliper HDAC enzymatic endpoint assay, HDAC9; format: biochemical; conditions: Table 2C; read-out: HDAC9 IC50 after 0 hr preincubation
Chain of HDAC9 (Q9UKV0 whole entry): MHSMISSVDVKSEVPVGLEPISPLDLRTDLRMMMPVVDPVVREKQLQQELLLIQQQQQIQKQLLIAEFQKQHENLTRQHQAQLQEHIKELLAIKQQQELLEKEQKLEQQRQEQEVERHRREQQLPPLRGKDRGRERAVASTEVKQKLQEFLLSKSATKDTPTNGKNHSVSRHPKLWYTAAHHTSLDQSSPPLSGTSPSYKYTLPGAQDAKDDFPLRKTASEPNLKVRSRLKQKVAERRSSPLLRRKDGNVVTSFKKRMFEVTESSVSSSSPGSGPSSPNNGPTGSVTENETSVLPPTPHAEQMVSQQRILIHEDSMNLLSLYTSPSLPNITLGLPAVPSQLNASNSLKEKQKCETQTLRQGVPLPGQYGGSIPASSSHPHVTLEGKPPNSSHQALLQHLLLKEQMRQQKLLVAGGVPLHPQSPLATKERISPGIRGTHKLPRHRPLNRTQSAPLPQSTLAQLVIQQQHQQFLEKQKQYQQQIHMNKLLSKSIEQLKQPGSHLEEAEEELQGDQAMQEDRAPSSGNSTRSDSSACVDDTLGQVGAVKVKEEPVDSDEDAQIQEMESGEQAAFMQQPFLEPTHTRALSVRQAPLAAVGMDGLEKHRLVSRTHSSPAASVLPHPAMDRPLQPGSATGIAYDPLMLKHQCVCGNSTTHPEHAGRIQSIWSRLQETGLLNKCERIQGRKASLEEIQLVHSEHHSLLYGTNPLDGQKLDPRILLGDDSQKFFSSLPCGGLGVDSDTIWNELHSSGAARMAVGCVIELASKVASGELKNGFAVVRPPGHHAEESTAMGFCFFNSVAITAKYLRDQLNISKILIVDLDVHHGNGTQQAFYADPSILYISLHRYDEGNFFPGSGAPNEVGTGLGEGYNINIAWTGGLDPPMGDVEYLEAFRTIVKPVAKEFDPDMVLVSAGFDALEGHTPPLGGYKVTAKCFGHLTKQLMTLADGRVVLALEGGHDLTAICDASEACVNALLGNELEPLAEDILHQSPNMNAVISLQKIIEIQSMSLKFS

[5] = system: INS-1E cells; experiment: ER stress / UPR markers by qPCR and immunoblotting; format: cell-based, rat; conditions: 10 μM, GLT
Method: INS-1E cells (one million/well) were seeded in 6-well plates in 2 mL complete medium. After two days, medium was removed and cells were exposed to 2 mL medium/well with the indicated concentrations of palmitate, glucose, HDAC inhibitors and/or vehicle. RNA was purified (Qiagen) and cDNA synthesis performed done according to manufacturers' guidelines (Applied Biosystems) and real-time PCR performed using the SYBR green method (Applied Biosystems). Each cDNA sample in triplicate was subjected to two individual PCR amplifications either for the gene of interest or the reference gene β-actin. See table below for primer sequences. INS-1E cells (one million/well) were seeded in 6-well plates in 2 mL complete medium. After two days, medium was removed and cells were exposed to 2 mL medium/well with the indicated concentrations of palmitate, glucose, test compounds and/or vehicle. Cells were lysed using Passive Lysis Buffer (Promega) containing protease inhibitors (Roche). Lysates were adjusted for protein concentration (Bradford) and protein separated by SDS-PAGE and transferred to PVDF membranes. Blots were developed using a chemiluminescence detection system (SuperSignal, Thermo Fisher Scientific), and light emission was captured using an Imaging Station 4000MM (Carestream). […] Gene expressions (vehicle=open bars, compound 1=light grey bars, GLT=black bars, GLT and compound 1=dark grey bars) were analyzed by qPCR (FIGS. 14A, 14B, 14D, 14E, and 14F) and protein levels (FIGS. 14C and 14G) (24 h) by immunoblotting. Representative blots are shown. Data are presented as fold to CTRL+SEM n=3-4, ns=not significant, *p<0.05, **p<0.01, ***p<0.001 vs unexposed cells; #p<0.05, ##p<0.01, ###p<0.001 vs. GLT treated cells, ANOVA with Tukey corrected test.

[6] = system: INS-1E cells; experiment: Cytokine-induced beta-cell apoptosis, caspase-3 activity assay; format: cell-based, rat
Method: Compounds of the invention were evaluated for their ability to suppress cytokine-induced beta-cell apoptosis and palmitate and/or glucose-induced beta-cell apoptosis by inhibition of HDAC3. Assay protocols were as follows: Cell culture and reagents. […] Recombinant IL-1β, IFN-γ, and TNF-α were purchased from R&D Systems. Palmitate, D-glucose and fatty acids-free low endotoxin BSA were purchased from Sigma. Palmitate was solubilized in 90% ethanol, heated to 60° C. and used 1:100 dilution in media. Caspase-Glo 3/7 was from Promega and 3-(4,5-dimethylthiazol-2-yl)-2,5-diphenyltetrazolium bromide (MTT) was from Calbiochem. Antibodies for HDAC1, HDAC2, HDAC3, pJNK, JNK cleaved caspase-9 and secondary horseradish-peroxidase conjugated goat anti-mouse and anti-rabbit antibodies were from Cell Signaling. Antibody for beta-actin was from Sigma and antibody against CHOP (GADD153) from Abcam. HDAC inhibitors were purchased from Selleck Chemicals or synthesized in-house. Primers were from Integrated DNA Technologies, High Capacity cDNA RT kit and SYBR green master mix were purchased from Applied Biosystems. INS-1E cells were seeded at 5,000 cells/well using a Multidrop Combi (Thermo Labsystems) in white optical 384-well plates (Corning Life Sciences). After overnight incubation, medium was removed and 50 μL RPMI containing the treated compound, 1% FBS and either a combination of cytokines (10 ng/mL IL-1β, 50 ng/mL IFN-γ, 25 ng/mL TNF-α) or 0.5 mM sodium palmitate was added to every well. After two-day treatment, medium was removed and 20 μL Caspase-Glo 3/7 reagent was added. Luminescence was measured after a two-hour incubation using an Envision plate reader (PerkinElmer). […] The rat INS-1E cell line was simultaneously treated for 48 hours with a combination of pro-inflammatory cytokines IL-1β, IFN-γ, and TNF-α, and the indicated test compounds. […] Compound 9, a negative control, had no effect. […] FIGS. 9C and 9D show a dose-response analysis of HDAC inhibition in suppression of cytokine-induced beta-cell apoptosis. […] This could translate to a larger therapeutic window. […]

- IC50 [2]: > 33 µM
- IC50 [4]: > 33 µM
Compound: CC(=O)Nc1ccc(C(=O)Nc2ccc(F)cc2N)cc1 [Compound 1, 4-acetamido-N-(2-amino-4-fluorophenyl)benzamide]
- glucose-stimulated insulin release [1]: restoring insulin release
- insulin content [1]: restoring insulin content
- FGF21 expression (FGF21/actin), dose response [3]: dose response increases in FGF21 expression
- FGF21 mRNA expression ([3]; 20 μM, two hours): upregulates FGF21 mRNA expression
- Atf4 transcription factor induction [5]: did not affect Atf4 transcription factor induction
- levels of the ER chaperone Bip mRNA [5]: did not change
- splicing of Xbp1 to Xbp1s [5]: did not affect splicing
- ATF4-mediated induction of Chop ([5]; 9 hrs): decreased
- ATF4-mediated induction of Atf3 ([5]; 24 hrs): decreased
- CHOP mRNA and protein induction ([5]; 24 hrs): completely reversed
- phosphorylation of JNK (pJNK/tJNK) ([5]; 24 hrs): inhibited phosphorylation of JNK
- suppression of cytokine-induced beta-cell apoptosis (caspase activity) ([6]; IL-1β, IFN-γ, TNF-α, 48 hours, 5 μM compound): as effective at suppressing cyctokine-induced beta-cell apoptosis as CI-994
- suppression of caspase-3 activity, comparison of compounds ([6]; cytokines, 0.1-10 μM, dose dependent): more effective at suppressing caspase-3 activity
